Where “and” joins values, the source holds several entries; their conditions need not be identical. Identical values can stand only once. Toxic doses and inconclusive results are not listed.
Test system: P388 leukemia ip, CD2F1 mice, survival T/C
Experiment: NCI In Vivo Anticancer Drug Screen. Data for tumor model P388 Leukemia (intraperitoneal) in CD2F1 (CDF1) mice
Details: endpoint: median survival time, higher = longer survival
How it was run: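 Mice carrying the transplanted tumor received test compound or vehicle. Survival was recorded in each group, and the value is the treated-group measurement divided by that of the vehicle-treated control group.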

[1] = dose: 25.0 mg/kg/injection, schedule: Q01DX009 (ip), vehicle: saline with Tween-80
[2] = dose: 50.0 mg/kg/injection, schedule: Q01DX009 (ip), vehicle: saline with Tween-80
[3] = dose: 100.0 mg/kg/injection, schedule: Q01DX009 (ip), vehicle: saline with Tween-80
[4] = dose: 200.0 mg/kg/injection, schedule: Q01DX009 (ip), vehicle: saline with Tween-80
[5] = dose: 50.0 mg/kg/injection, schedule: Q01DX005 (ip), vehicle: saline with Tween-80
[6] = dose: 100.0 mg/kg/injection, schedule: Q01DX005 (ip), vehicle: saline with Tween-80
[7] = dose: 200.0 mg/kg/injection, schedule: Q01DX005 (ip), vehicle: saline with Tween-80

**Q.** COc1ccc(-c2coc3c4c(ccc3c2=O)OCO4)cc1OC was tested. Which T/C (dose: 9.75 mg/kg/injection, schedule: Q01DX005 (ip), vehicle: Klucel (hydroxypropylcellulose) (HPC)) did it give?
**A.** 94 % of control

**Q.** What about the T/C (dose: 19.5 mg/kg/injection, schedule: Q01DX005 (ip), vehicle: Klucel (hydroxypropylcellulose) (HPC)) of the same compound?
**A.** 94 % of control

**Q.** And the T/C (dose: 39.0 mg/kg/injection, schedule: Q01DX005 (ip), vehicle: Klucel (hydroxypropylcellulose) (HPC))?
**A.** 87 % of control

**Q.** What about the T/C (dose: 78.0 mg/kg/injection, schedule: Q01DX005 (ip), vehicle: Klucel (hydroxypropylcellulose) (HPC)) of the same compound?
**A.** 86 % of control

**Q.** Clc1ccc(Cl)c(N=NNc2cc(Cl)ccc2Cl)c1 was tested. Which T/C (dose: 12.5 mg/kg/injection, schedule: Q01DX009 (ip), vehicle: saline with Tween-80) did it give?
**A.** 96 % of control

**Q.** And the T/C [1]?
**A.** 99 % of control

**Q.** And the T/C (dose: 25.0 mg/kg/injection, schedule: Q01DX009 (ip), vehicle: saline)?
**A.** 98 % of control

**Q.** And the T/C [2]?
**A.** 97 % of control

**Q.** And the T/C (dose: 50.0 mg/kg/injection, schedule: Q01DX009 (ip), vehicle: saline)?
**A.** 94 % of control

**Q.** What about the T/C [3] of the same compound?
**A.** 98 % of control

**Q.** And the T/C (dose: 100.0 mg/kg/injection, schedule: Q01DX009 (ip), vehicle: saline)?
**A.** 92 % of control

**Q.** What about the T/C (dose: 100.0 mg/kg/injection, schedule: Q04DX003 (ip), vehicle: saline with Tween-80) of the same compound?
**A.** 104 % of control

**Q.** And the T/C [4]?
**A.** 88 % of control

**Q.** What about the T/C (dose: 200.0 mg/kg/injection, schedule: Q01DX009 (ip), vehicle: saline) of the same compound?
**A.** 92 % of control

**Q.** And the T/C (dose: 200.0 mg/kg/injection, schedule: Q04DX003 (ip), vehicle: saline with Tween-80)?
**A.** 104 % of control

**Q.** And the T/C (dose: 400.0 mg/kg/injection, schedule: Q04DX003 (ip), vehicle: saline with Tween-80)?
**A.** 95 % of control

**Q.** For CCOC(=O)C(C(C)O)C1CC=CC1 (stereo unspecified), which T/C [5] is on record?
**A.** 108 % of control

**Q.** What about the T/C [6] of the same compound?
**A.** 100 % of control

**Q.** And the T/C [7]?
**A.** 104 % of control

**Q.** With CCCSCCNC(=O)C1(O)C(O)C2(CC)C=CCN3CCC4(c5cc(C6(OC(C)=O)CC7C=C(CC)CN(CCc8c6[nH]c6ccccc86)C7)c(OC)cc5N(C)C14)C32 (stereo unspecified) as the compound, how does the T/C (dose: 0.5 mg/kg/injection, schedule: Q01DX001 (ip), vehicle: water) read?
**A.** 107 % of control

**Q.** And the T/C (dose: 2.0 mg/kg/injection, schedule: Q01DX001 (ip), vehicle: water)?
**A.** 111 % of control

**Q.** And the T/C (dose: 4.0 mg/kg/injection, schedule: Q01DX001 (ip), vehicle: water)?
**A.** 159 % of control

**Q.** And the T/C (dose: 8.0 mg/kg/injection, schedule: Q01DX001 (ip), vehicle: water)?
**A.** 161 % of control

**Q.** And the T/C (dose: 16.0 mg/kg/injection, schedule: Q01DX001 (ip), vehicle: water)?
**A.** 158 % of control and 198 % of control

**Q.** Which T/C (dose: 50.0 mg/kg/injection, schedule: Q04DX003 (ip), vehicle: saline) does the source give for O=S1(=O)CCCCC1 here?
**A.** 100 % of control

**Q.** What about the T/C (dose: 100.0 mg/kg/injection, schedule: Q04DX003 (ip), vehicle: saline) of the same compound?
**A.** 100 % of control

**Q.** What about the T/C (dose: 200.0 mg/kg/injection, schedule: Q04DX003 (ip), vehicle: saline) of the same compound?
**A.** 110 % of control

**Q.** Which results are given for CCc1ccnc(N=C2N=C(Nc3cc(CC)ccn3)c3ccccc32)c1?
**A.** T/C [2]: 92 % of control; T/C [3]: 97 % of control; T/C [4]: 97 % of control

**Q.** For O=C(CCc1ccccc1)c1c(O)c(Cc2ccccc2O)c2c(c1O)Cc1ccccc1O2, which T/C (dose: 1.5 mg/kg/injection, schedule: Q01DX009 (ip), vehicle: Klucel (hydroxypropylcellulose) (HPC)) is on record?
**A.** 100 % of control

**Q.** What about the T/C (dose: 3.0 mg/kg/injection, schedule: Q01DX009 (ip), vehicle: Klucel (hydroxypropylcellulose) (HPC)) of the same compound?
**A.** 98 % of control

**Q.** What about the T/C (dose: 6.0 mg/kg/injection, schedule: Q01DX009 (ip), vehicle: Klucel (hydroxypropylcellulose) (HPC)) of the same compound?
**A.** 98 % of control

**Q.** What about the T/C (dose: 12.0 mg/kg/injection, schedule: Q01DX009 (ip), vehicle: Klucel (hydroxypropylcellulose) (HPC)) of the same compound?
**A.** 98 % of control

**Q.** For COC(=O)C1=CN(C)C(c2ccccc2)C=C1 (stereo unspecified), which T/C [5] is on record?
**A.** 103 % of control

**Q.** And the T/C [6]?
**A.** 107 % of control

**Q.** What about the T/C [7] of the same compound?
**A.** 112 % of control

**Q.** Which T/C (dose: 50.0 mg/kg/injection, schedule: Q01DX001 (ip), vehicle: saline sonified) does the source give for CCCCCCCCCCCCCCCC(CCCCCC)CCCCCC here?
**A.** 113 % of control

**Q.** What about the T/C (dose: 100.0 mg/kg/injection, schedule: Q01DX001 (ip), vehicle: saline sonified) of the same compound?
**A.** 100 % of control

**Q.** And the T/C (dose: 200.0 mg/kg/injection, schedule: Q01DX001 (ip), vehicle: saline sonified)?
**A.** 109 % of control

**Q.** With Clc1cc(-c2csc(Cl)c2)cs1 as the compound, how does the T/C [1] read?
**A.** 97 % of control

**Q.** What about the T/C [2] of the same compound?
**A.** 103 % of control and 97 % of control

**Q.** And the T/C [3]?
**A.** 109 % of control

**Q.** And the T/C [4]?
**A.** 96 % of control

**Q.** Which results are given for COc1ccc(-c2cc(-c3ccccc3)c(-c3ccccc3)nn2)cc1CN1CCOCC1?
**A.** T/C [2]: 99 % of control; T/C [3]: 100 % of control; T/C [4]: 95 % of control

**Q.** CC12Cc3ccccc3CC1OCN1CN2COC2Cc3ccccc3CC21C (stereo unspecified) was tested. Which T/C (dose: 50.0 mg/kg/injection, schedule: Q01DX005 (ip), vehicle: saline) did it give?
**A.** 105 % of control

**Q.** What about the T/C (dose: 100.0 mg/kg/injection, schedule: Q01DX005 (ip), vehicle: saline) of the same compound?
**A.** 98 % of control

**Q.** And the T/C (dose: 200.0 mg/kg/injection, schedule: Q01DX005 (ip), vehicle: saline)?
**A.** 90 % of control

**Q.** Which results are given for COCC12CN(C)C3C4C(OC)C1C3(C(OC)CC2O)C1CC2(O)C(OC)C(O)C4(OC(C)=O)C1C2OC(=O)c1ccccc1 (stereo unspecified)?
**A.** T/C (dose: 0.09 mg/kg/injection, schedule: Q01DX005 (ip), vehicle: Klucel (hydroxypropylcellulose) (HPC)): 100 % of control; T/C (dose: 12.0 micrograms/kg/injection, schedule: Q01DX005 (ip), vehicle: Klucel (hydroxypropylcellulose) (HPC)): 91 % of control; T/C (dose: 24.0 micrograms/kg/injection, schedule: Q01DX005 (ip), vehicle: Klucel (hydroxypropylcellulose) (HPC)): 98 % of control and 101 % of control; T/C (dose: 48.0 micrograms/kg/injection, schedule: Q01DX005 (ip), vehicle: Klucel (hydroxypropylcellulose) (HPC)): 100 % of control and 101 % of control

**Q.** Which results are given for Nc1nc(NCCCc2ccccc2)c(N=Nc2ccccc2)c(=O)[nH]1?
**A.** T/C (dose: 60.0 mg/kg/injection, schedule: Q01DX005 (ip), vehicle: saline with Tween-80): 105 % of control; T/C (dose: 120.0 mg/kg/injection, schedule: Q01DX005 (ip), vehicle: saline with Tween-80): 105 % of control; T/C (dose: 240.0 mg/kg/injection, schedule: Q01DX005 (ip), vehicle: saline with Tween-80): 105 % of control

**Q.** Which results are given for C=CCOC(CCC)OCC=C?
**A.** T/C (dose: 50.0 mg/kg/injection, schedule: Q01DX009 (ip), vehicle: Klucel (hydroxypropylcellulose) (HPC)): 97 % of control; T/C (dose: 100.0 mg/kg/injection, schedule: Q01DX009 (ip), vehicle: Klucel (hydroxypropylcellulose) (HPC)): 97 % of control

**Q.** Which results are given for CC[CH2][Sn]([Cl])([Cl])[CH2]CC.Oc1ccccc1C=NCCN=Cc1ccccc1O?
**A.** T/C (dose: 0.6 mg/kg/injection, schedule: Q01DX009 (ip), vehicle: gum acacia): 111 % of control; T/C (dose: 5.0 mg/kg/injection, schedule: Q01DX009 (ip), vehicle: gum acacia): 159 % of control

**Q.** Which results are given for CCC1(O)CC(c2ccccc2)N(C)C(c2ccccc2)C1 (stereo unspecified)?
**A.** T/C [5]: 99 % of control; T/C [6]: 95 % of control

**Q.** For CCCCCCC(C)N=[N+]([O-])CBr (stereo unspecified), which T/C (dose: 100.0 mg/kg/injection, schedule: Q01DX001 (ip), vehicle: other) is on record?
**A.** 114 % of control

**Q.** What about the T/C (dose: 200.0 mg/kg/injection, schedule: Q01DX001 (ip), vehicle: other) of the same compound?
**A.** 111 % of control

**Q.** And the T/C (dose: 400.0 mg/kg/injection, schedule: Q01DX001 (ip), vehicle: other)?
**A.** 103 % of control

From PubChem BioAssay AID330 (DTP/NCI, 2004)
